In general, IC50 refers to the midpoint of a concentration-inhibition curve. Broadly, the Ki is a measure of affinity in units of concentration, obtained from inhibition or displacement.

The source of these data is ChEMBL document CHEMBL1909046, “DrugMatrix in vitro pharmacology data”.

One assay addresses Cannabinoid receptor 1 (Homo sapiens, UniProt P21554). Type of assay: cell membranes, Chem-1, Membrane. As to conditions: chem-1.
Assay [1] deals with Vascular endothelial growth factor receptor 1 (Homo sapiens, UniProt P17948). The class given is cell-based. As to conditions: huvec.
Vascular endothelial growth factor receptor 1, sequence (P17948 whole entry): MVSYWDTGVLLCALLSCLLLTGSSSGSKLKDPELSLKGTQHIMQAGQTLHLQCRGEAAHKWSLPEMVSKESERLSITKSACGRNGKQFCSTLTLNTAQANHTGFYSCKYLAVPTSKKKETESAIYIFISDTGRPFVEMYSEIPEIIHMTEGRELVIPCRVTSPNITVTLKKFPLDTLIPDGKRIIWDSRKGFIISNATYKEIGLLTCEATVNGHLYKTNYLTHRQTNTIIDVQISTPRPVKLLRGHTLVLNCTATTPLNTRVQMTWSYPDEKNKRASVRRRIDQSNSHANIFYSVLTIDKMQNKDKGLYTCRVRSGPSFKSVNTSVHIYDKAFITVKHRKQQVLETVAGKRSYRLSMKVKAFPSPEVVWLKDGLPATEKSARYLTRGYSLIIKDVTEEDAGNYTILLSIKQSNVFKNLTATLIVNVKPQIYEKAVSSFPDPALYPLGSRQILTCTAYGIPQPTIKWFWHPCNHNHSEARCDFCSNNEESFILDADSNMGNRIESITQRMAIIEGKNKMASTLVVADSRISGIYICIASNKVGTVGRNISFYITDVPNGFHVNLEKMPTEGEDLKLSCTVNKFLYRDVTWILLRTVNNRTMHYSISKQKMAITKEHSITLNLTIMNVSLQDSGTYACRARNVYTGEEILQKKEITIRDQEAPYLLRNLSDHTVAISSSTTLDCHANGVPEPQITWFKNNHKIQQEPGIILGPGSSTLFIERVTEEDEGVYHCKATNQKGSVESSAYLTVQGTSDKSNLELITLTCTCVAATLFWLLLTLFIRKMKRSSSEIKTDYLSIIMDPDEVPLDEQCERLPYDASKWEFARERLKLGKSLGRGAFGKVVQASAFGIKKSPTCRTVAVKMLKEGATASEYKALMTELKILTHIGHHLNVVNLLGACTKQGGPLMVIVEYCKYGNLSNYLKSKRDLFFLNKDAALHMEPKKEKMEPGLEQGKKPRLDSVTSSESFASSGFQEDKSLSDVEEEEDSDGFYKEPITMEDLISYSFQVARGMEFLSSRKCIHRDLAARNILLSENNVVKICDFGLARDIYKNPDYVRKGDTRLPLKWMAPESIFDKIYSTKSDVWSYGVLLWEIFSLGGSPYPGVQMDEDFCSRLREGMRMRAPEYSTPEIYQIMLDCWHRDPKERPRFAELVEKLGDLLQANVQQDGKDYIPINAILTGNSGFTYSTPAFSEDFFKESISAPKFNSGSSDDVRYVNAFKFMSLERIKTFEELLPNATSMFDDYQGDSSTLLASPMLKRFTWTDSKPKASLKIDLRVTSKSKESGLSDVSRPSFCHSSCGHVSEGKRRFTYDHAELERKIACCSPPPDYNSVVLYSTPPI
The target of assay [2] is T1, Vasoactive intestinal polypeptide receptor 1 (Homo sapiens, UniProt P32241).
T1 sequence (P32241 whole entry): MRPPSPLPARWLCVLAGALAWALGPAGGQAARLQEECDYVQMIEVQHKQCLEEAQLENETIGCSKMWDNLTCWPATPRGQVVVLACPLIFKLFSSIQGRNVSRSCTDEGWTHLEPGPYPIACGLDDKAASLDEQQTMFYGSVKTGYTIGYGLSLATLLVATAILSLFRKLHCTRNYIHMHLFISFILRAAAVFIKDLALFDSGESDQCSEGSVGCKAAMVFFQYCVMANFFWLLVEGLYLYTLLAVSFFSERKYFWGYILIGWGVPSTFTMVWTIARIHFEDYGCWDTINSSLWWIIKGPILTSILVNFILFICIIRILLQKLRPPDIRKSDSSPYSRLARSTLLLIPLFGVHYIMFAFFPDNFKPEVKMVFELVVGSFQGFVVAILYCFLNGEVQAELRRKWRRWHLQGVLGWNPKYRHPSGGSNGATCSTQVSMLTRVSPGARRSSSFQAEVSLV
The class given is cell membranes, Membrane. As to conditions: ht-29.

Assay [3] deals with Protein phosphatase 3 catalytic subunit alpha (Homo sapiens, UniProt Q08209). Details: species or system Escherichia coli.
The target of the next assay is T2, Adenosine receptor A1 (Homo sapiens, UniProt P30542).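 Further: radioligand binding assay at the adenosine A1 receptor, with DPCPX serving as the labelled ligand.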
T2 sequence (P30542 whole entry): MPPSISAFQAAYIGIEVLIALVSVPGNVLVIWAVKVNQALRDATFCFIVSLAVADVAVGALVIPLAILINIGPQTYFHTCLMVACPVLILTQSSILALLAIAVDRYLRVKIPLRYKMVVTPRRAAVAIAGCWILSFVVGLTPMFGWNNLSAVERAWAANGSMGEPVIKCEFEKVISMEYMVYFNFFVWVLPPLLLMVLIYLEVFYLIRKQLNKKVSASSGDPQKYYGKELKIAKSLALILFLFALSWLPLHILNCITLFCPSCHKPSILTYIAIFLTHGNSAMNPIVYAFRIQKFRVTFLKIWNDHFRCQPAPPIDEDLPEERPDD
The class given is cell membranes, CHO, Membrane. As to conditions: cho.

Another assay concerns the target T3, Adenosine receptor A3 (Homo sapiens, UniProt P0DMS8).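 Further: radioligand binding assay with AB-MECA serving as the labeled ligand.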
T3 sequence (P0DMS8 whole entry): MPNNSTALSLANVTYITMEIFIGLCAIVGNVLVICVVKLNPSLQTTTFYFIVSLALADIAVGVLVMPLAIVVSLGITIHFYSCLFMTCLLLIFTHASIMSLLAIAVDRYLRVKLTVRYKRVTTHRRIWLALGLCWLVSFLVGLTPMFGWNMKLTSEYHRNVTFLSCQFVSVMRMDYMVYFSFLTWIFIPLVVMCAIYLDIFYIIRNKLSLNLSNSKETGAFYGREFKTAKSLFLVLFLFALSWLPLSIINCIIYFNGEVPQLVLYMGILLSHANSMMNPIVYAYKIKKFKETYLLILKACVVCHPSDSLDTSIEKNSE
The class given is cell membranes, CHO-K1, Membrane.

For a further assay, the target named is T4, Endothelin-1 receptor (Homo sapiens, UniProt P25101).
T4 sequence (P25101 whole entry): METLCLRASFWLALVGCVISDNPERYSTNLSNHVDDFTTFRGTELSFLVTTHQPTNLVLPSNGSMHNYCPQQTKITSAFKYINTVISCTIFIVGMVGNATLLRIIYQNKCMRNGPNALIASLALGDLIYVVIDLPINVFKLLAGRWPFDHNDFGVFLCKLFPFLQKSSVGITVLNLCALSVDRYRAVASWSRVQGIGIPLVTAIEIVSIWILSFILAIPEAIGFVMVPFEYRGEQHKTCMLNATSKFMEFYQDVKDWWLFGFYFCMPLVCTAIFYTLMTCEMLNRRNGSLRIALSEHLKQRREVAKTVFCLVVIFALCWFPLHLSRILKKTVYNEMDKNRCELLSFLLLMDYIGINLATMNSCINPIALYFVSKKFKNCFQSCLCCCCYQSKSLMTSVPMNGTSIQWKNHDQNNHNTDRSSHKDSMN
Type of assay: cell membranes, Membrane. As to conditions: cho-k1.

The target in a further assay is Substance-P receptor (Homo sapiens, UniProt P25103). Type of assay: cell membranes, Membrane. As to conditions: cho.
Substance-P receptor, sequence (P25103 whole entry): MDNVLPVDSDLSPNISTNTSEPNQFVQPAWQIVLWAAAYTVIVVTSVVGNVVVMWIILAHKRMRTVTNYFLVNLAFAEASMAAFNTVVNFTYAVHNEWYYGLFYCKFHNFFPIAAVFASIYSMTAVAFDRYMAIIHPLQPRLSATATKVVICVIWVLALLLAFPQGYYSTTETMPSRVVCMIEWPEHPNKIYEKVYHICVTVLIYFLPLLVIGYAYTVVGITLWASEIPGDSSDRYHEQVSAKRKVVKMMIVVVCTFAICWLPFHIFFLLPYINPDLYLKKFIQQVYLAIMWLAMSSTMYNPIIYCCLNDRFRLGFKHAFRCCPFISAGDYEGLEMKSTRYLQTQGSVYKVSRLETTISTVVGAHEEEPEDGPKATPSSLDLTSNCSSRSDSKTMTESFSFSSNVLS
Further: in other assays of this panel Not Active means under 50% inhibition at 10 µM.

Cannabinoid receptor 1, sequence (P21554 whole entry): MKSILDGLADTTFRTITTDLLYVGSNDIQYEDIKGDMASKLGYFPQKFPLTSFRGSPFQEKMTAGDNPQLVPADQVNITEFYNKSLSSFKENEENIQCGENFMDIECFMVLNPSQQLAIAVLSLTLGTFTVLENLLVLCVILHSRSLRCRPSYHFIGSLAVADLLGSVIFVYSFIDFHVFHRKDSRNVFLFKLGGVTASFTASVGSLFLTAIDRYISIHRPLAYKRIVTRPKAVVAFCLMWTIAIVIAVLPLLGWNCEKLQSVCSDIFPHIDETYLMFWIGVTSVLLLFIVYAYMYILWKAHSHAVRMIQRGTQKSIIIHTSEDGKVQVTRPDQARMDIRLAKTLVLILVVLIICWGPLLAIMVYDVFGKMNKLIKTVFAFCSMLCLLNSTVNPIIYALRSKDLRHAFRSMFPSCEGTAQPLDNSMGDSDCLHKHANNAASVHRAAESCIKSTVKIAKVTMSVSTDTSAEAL

Take `O=C(O)c1cc(/N=N/c2ccc(S(=O)(=O)Nc3ccccn3)cc2)ccc1O` [SULFASALAZINE]: the IC50 entry (against Cannabinoid receptor 1; in assay [1]; in assay [2]; in assay [3]; against Adenosine receptor A1; against Adenosine receptor A3 (cho-k1)) was “Not Active” throughout. Further, the IC50 entry against Endothelin-1 receptor and on Substance-P receptor was “Not Active” each time.

Turning to `Cc1cccc(C)c1NC(=O)C(C)N` (stereo not drawn) [TOCAINIDE], the half-inhibitory concentration (IC50) entry (against Cannabinoid receptor 1; in assay [1]; in assay [2]; in assay [3]; against Adenosine receptor A1; at Adenosine receptor A3 (cho-k1)) was “Not Active” throughout. Also, the concentration for half-maximal inhibition (IC50) result on Endothelin-1 receptor and against Substance-P receptor was “Not Active” throughout.

With `CO[C@@]12[C@H](COC(N)=O)C3=C(C(=O)C(C)=C(N)C3=O)N1C[C@@H]1N[C@@H]12` [MITOMYCIN], the IC50 entry (at Cannabinoid receptor 1; in assay [1]; in assay [2]; in assay [3]; at Adenosine receptor A1; on Adenosine receptor A3 (cho-k1)) was “Not Active” throughout. The IC50 entry on Endothelin-1 receptor and on Substance-P receptor was “Not Active” in each case.

For the compound `Nc1nc(N)c2nc(-c3ccccc3)c(N)nc2n1`, the IC50 entry (against Cannabinoid receptor 1; in assay [1]; in assay [2]; in assay [3]; at Adenosine receptor A1; against Adenosine receptor A3 (cho-k1)) was “Not Active” in each case. The IC50 result against Endothelin-1 receptor and against Substance-P receptor was “Not Active” throughout.

Regarding `CC1=C(/C=C/C(C)=C/C=C/C(C)=C/C(=O)O)C(C)(C)CCC1` [TRETINOIN], the half-inhibitory concentration (IC50) entry at Cannabinoid receptor 1 was “Not Active”; in assay [1] it was “Not Active”; in assay [2] it was “Not Active”; in assay [3] it was “Not Active”; on Adenosine receptor A1, “Not Active”; at Adenosine receptor A3 (read-out: IC50), 5.27 µM. Moreover, the half-inhibitory concentration (IC50) entry at Endothelin-1 receptor and on Substance-P receptor was “Not Active” throughout. Besides, the Ki at Adenosine receptor A3 (read-out: Ki) was determined as 2.98 µM.

On to `CC[C@@]1(O)C(=O)OCc2c1cc1n(c2=O)Cc2cc3c(CN(C)C)c(O)ccc3nc2-1` [TOPOTECAN], for which the IC50 entry (against Cannabinoid receptor 1; in assay [1]; in assay [2]; in assay [3]; against Adenosine receptor A1; at Adenosine receptor A3 (cho-k1)) was “Not Active” in each case. The IC50 result against Endothelin-1 receptor and against Substance-P receptor was “Not Active” throughout.

For `Cc1ccc(Cl)c(Nc2ccccc2C(=O)O)c1Cl` [MECLOFENAMIC ACID], the concentration for half-maximal inhibition (IC50) entry (at Cannabinoid receptor 1; in assay [1]; in assay [2]; in assay [3]; against Adenosine receptor A1; against Adenosine receptor A3 (cho-k1)) was “Not Active” in each case. Moreover, the IC50 result on Endothelin-1 receptor and against Substance-P receptor was “Not Active” each time.

Turning to `CCOc1cc(N)c(Cl)cc1C(=O)NCC1CN(Cc2ccc(F)cc2)CCO1` (stereo not drawn) [MOSAPRIDE], the IC50 entry (at Cannabinoid receptor 1; in assay [1]; in assay [2]; in assay [3]; against Adenosine receptor A1; against Adenosine receptor A3 (cho-k1)) was “Not Active” each time. The IC50 result on Endothelin-1 receptor and on Substance-P receptor was “Not Active” each time.

Consider `CN1C[C@H](CNC(=O)OCc2ccccc2)C[C@@H]2c3cccc4c3c(cn4C)C[C@H]21` [METERGOLINE], for which the IC50 entry (at Cannabinoid receptor 1; in assay [1]; in assay [2]; in assay [3]; on Adenosine receptor A1; against Adenosine receptor A3 (cho-k1)) was “Not Active” each time. Further, the IC50 entry on Endothelin-1 receptor and against Substance-P receptor was “Not Active” throughout.

For the compound `Cc1cc2c(s1)Nc1ccccc1N=C2N1CCN(C)CC1` [OLANZAPINE], the IC50 entry (on Cannabinoid receptor 1; in assay [1]; in assay [2]; in assay [3]; against Adenosine receptor A1; at Adenosine receptor A3 (cho-k1)) was “Not Active” each time. Besides, the 50% inhibitory concentration (IC50) result against Endothelin-1 receptor and on Substance-P receptor was “Not Active” in each case.

With `C1CCN2C[C@@H]3C[C@@H](CN4CCCC[C@@H]34)[C@H]2C1` [SPARTEINE], the half-maximal inhibitory concentration (IC50) result (on Cannabinoid receptor 1; in assay [1]; in assay [2]; in assay [3]; against Adenosine receptor A1; at Adenosine receptor A3 (cho-k1)) was “Not Active” throughout. The IC50 entry against Endothelin-1 receptor and against Substance-P receptor was “Not Active” in each case.

As for `CO[C@@H]1[C@@H](OC)[C@H](C)[C@@](O)(CC(=O)O)O[C@H]1[C@H](C)[C@H]1O[C@@]2(CC[C@@](C)([C@H]3CC[C@@](C)([C@@H]4O[C@@H]([C@H]5O[C@](C)(O)[C@H](C)C[C@@H]5C)C[C@@H]4O[C@@H]4C[C@H](OC)[C@@H](OC)[C@H](C)O4)O3)O2)C[C@H](O)[C@H]1C.N` [MADURAMICIN], the IC50 entry (at Cannabinoid receptor 1; in assay [1]; in assay [2]; in assay [3]; at Adenosine receptor A1; on Adenosine receptor A3 (cho-k1)) was “Not Active” each time. In addition, the half-maximal inhibitory concentration (IC50) result at Endothelin-1 receptor and against Substance-P receptor was “Not Active” throughout.

Consider `CN1C(=O)OC(C)(C)C1=O` [TRIMETHADIONE], for which the concentration for half-maximal inhibition (IC50) result (against Cannabinoid receptor 1; in assay [1]; in assay [2]; in assay [3]; at Adenosine receptor A1; against Adenosine receptor A3 (cho-k1)) was “Not Active” in each case. In addition, the IC50 result against Endothelin-1 receptor and against Substance-P receptor was “Not Active” throughout.

In the case of `CC1(C)[C@H](C(=O)O)N2C(=O)C[C@H]2S1(=O)=O` [SULBACTAM], the half-maximal inhibitory concentration (IC50) entry (against Cannabinoid receptor 1; in assay [1]; in assay [2]; in assay [3]; against Adenosine receptor A1; at Adenosine receptor A3 (cho-k1)) was “Not Active” each time. Further, the half-maximal inhibitory concentration (IC50) entry against Endothelin-1 receptor and against Substance-P receptor was “Not Active” in each case.
